The text below walks through data of patent US20200276258A1, “PHARMACEUTICAL COMPOSITION FOR CONTROLLING BLOOD SUGAR” (BEIJING HEBABIZ BIOTECHNOLOGY CO., Inc., priority 2017, published 2020).

Structures can show the parent of a compound that is named as a salt.

Assay [1] concerns type 2 diabetes rat model (high-fat and high-sugar feed + streptozotocin). Description: Combined drug use experiment (HH003B with Empagliflozin): HbA1c in rat model. It counts as in vivo, Wistar rats. Conditions: model rats. An excerpt:
Wistar rats were bred adaptively for 1 week. The subjects were randomly divided into the normal Control group (10) and the modeling group (60) according to their body weight from the second week. The normal Control group (Control) was fed with basic feed, and the model group was fed with high-fat and high-sugar feed. […] On the 9th weekend, rats fasted overnight, measured FBG and insulin levels, and calculated the insulin index (ISI). The model would be successfully established if the fasting blood glucose (>) was 11.1 mmol/L and the ISI was decreased. The successfully modeled rats were randomly divided into Model group, Metformin hydrochloride group, HH003 group, and HH003B group, with 10 rats in each group. […] Fasting but gave water after the last dose, and then weighted the rats after 12 hours. Detected the content of fasting insulin (Insulin), separated the serum, detected the high-density lipoprotein (HDL), free fatty acid (FFA) and glycosylated hemoglobin (GHB). […] Empagliflozin group was given by gavage 1 mg/kg once a day. […] HbA1c was determined at the end of the experiment.

The test system is the same in assay [2]. Description: Pharmacodynamic experiment: biochemical indexes of rat model after 4 weeks of administration. It counts as in vivo, Wistar rats. As to conditions: model rats. An excerpt:
Wistar rats were bred adaptively for 1 week. The subjects were randomly divided into the normal Control group (10) and the modeling group (60) according to their body weight from the second week. The normal Control group (Control) was fed with basic feed, and the model group was fed with high-fat and high-sugar feed. […] On the 9th weekend, rats fasted overnight, measured FBG and insulin levels, and calculated the insulin index (ISI). The model would be successfully established if the fasting blood glucose (>) was 11.1 mmol/L and the ISI was decreased. The successfully modeled rats were randomly divided into Model group, Metformin hydrochloride group, HH003 group, and HH003B group, with 10 rats in each group. […] Fasting but gave water after the last dose, and then weighted the rats after 12 hours. Detected the content of fasting insulin (Insulin), separated the serum, detected the high-density lipoprotein (HDL), free fatty acid (FFA) and glycosylated hemoglobin (GHB).

Setting [3] is: 4 weeks, metformin hydrochloride 200 mg/kg daily gavage, HH003/HH003B 30% of feed (about 13 g/d/kg).

Turning to `OC[C@H]1O[C@@H](c2ccc(Cl)c(Cc3ccc(O[C@H]4CCOC4)cc3)c2)[C@H](O)[C@@H](O)[C@@H]1O` [Empagliflozin], in assay [1] (4 weeks, Empagliflozin 1 mg/kg gavage once a day, HH003B 15% of feed (about 7 g/d/kg), combination both), the “HbA1c (glycosylated hemoglobin)” value was determined as 7.01 ± 0.17 mg/dL. The “effect on glycosylated hemoglobin, in words” value in assay [1] (Empagliflozin 1 mg/kg, HH003B reduced dose (15% of feed)) is “no effect”.
Regarding `CN(C)C(=N)N=C(N)N` [Metformin, metformin hydrochloride], the “effect on HDL level, in words” value in assay [2] (4 weeks of administration) was “significantly increase HDL level”. In assay [2] (4 weeks of administration, versus Model and Control groups), the “effect on glycosylated hemoglobin GHB level, in words” value is on record as “significantly reduce the GHB level of the rats but still significantly higher than that of the normal rats”. In addition, the “effect on the disease condition of type 2 diabetes, in words” value in assay [2] (4 weeks, HH003/HH003B 30% of feed, metformin hydrochloride 200 mg/kg) is listed as “only improve the disease condition of type 2 diabetes to a certain extent”. In assay [2] (setting [3]), the “FFA (free fatty acid), serum” value is recorded as 0.56 ± 0.03 mmol/L; the “GHB (glycosylated hemoglobin)” value was determined as 15.07 ± 0.85 mmol/L; the “HDL (high-density lipoprotein), serum” value came to 0.74 ± 0.15 mmol/L. For the same compound, the “Insulin (fasting insulin)” value in assay [2] (4 weeks, metformin hydrochloride 200 mg/kg daily gavage, HH003/HH003B 30% of feed (about 13 g/d/kg), 12 h fasting, mean ± spread) was 31.15 ± 6.28 uIU/ml.
